Test results reported in US20130040882A1, “USE OF FIBROBLAST GROWTH FACTOR FRAGMENTS” (NOVARTIS AG, priority 2003, published 2013).

System: uterine gene expression
Experiment: Gene expression profiling (HGU133A) in the uterus of ovariectomized monkeys treated with estradiol, tamoxifen or raloxifene
Format: in vivo, cynomolgus monkeys (Macaca fascicularis)

CC/C(=C(\c1ccccc1)c1ccc(OCCN(C)C)cc1)c1ccccc1 [tamoxifen]
Uterine expression increase: Collagen type 1 alpha 2 (compared with OVX controls): 6.1 fold
Uterine expression increase: collagen type 1 alpha1 (compared with OVX controls): 3.5 fold
Uterine expression increase: collagen type III alpha 1 (compared with OVX controls): 3.4 fold
Uterine expression increase: collagen type IV alpha 1 (compared with OVX controls): 3.2 fold
Uterine expression increase: insulin-like GF binding protein 2 (36 kDa) (compared with OVX controls): 2.7 fold
Uterine expression changes: IGFBP 5, latent TGF beta binding protein 1, cysteine-rich angiogenic inducer 61 (cynomolgus monkey, in vivo): only modest changes
Uterine expression of the remaining signal transduction genes examined (tamoxifen: except for LDL receptor adaptor protein): downregulated
Fold change relative to OVX: ATPase, H+ transporting, lysosomal 38 kda, V0 subunit d isoform 1 (uterus, OVX monkeys): 1.2 fold
Fold change relative to OVX: ATPase, Na+/K+ transporting, beta 3 polypeptide (uterus, OVX monkeys): 2.1 fold
Fold change relative to OVX: Biglycan (uterus, OVX monkeys): 2.0 fold
Fold change relative to OVX: CDC28 protein kinase regulatory subunit 2 (uterus, OVX monkeys): 3.1 fold
Fold change relative to OVX: Cadherin 11, type 2, OB-cadherin (osteoblast) (uterus, OVX monkeys): 3.2 fold
Fold change relative to OVX: Calcium channel, voltage-dependent, beta 2 subunit (uterus, OVX monkeys): 0.5 fold
Fold change relative to OVX: Catenin (cadherin-associated protein), alpha-like 1 (uterus, OVX monkeys): 0.7 fold
Fold change relative to OVX: Chitinase 3-like 1 (cartilage glycoprotein-39) (uterus, OVX monkeys): 1.7 fold
Fold change relative to OVX: Chloride intracellular channel 4 (uterus, OVX monkeys): 1.9 fold
Fold change relative to OVX: Chondroitin sulfate proteoglycan 2 (versican) (uterus, OVX monkeys): 2.9 fold
Fold change relative to OVX: Collagen, type I, alpha 1 (uterus, OVX monkeys): 3.5 fold
Fold change relative to OVX: Collagen, type IV, alpha 2 (uterus, OVX monkeys): 2.2 fold
Fold change relative to OVX: Collagen, type V, alpha 1 (uterus, OVX monkeys): 1.3 fold
Fold change relative to OVX: Collagen, type VI, alpha 3 (uterus, OVX monkeys): 2.0 fold
Fold change relative to OVX: Collagen, type VIII, alpha 2 (uterus, OVX monkeys): 1.8 fold
Fold change relative to OVX: Cyclin D1 (PRAD1: parathyroid adenomatosis 1) (uterus, OVX monkeys): 1.8 fold
Fold change relative to OVX: Cysteine-rich, angiogenic inducer, 61 (uterus, OVX monkeys): 1.6 fold
Fold change relative to OVX: Cytochrome c oxidase subunit via polypeptide 1 (uterus, OVX monkeys): 1.3 fold
Fold change relative to OVX: Cytochrome c oxidase subunit viia polypeptide 2 (liver) (uterus, OVX monkeys): 1.6 fold
Fold change relative to OVX: Dermatopontin (uterus, OVX monkeys): 1.8 fold
Fold change relative to OVX: Dishevelled associated activator of morphogenesis 1 (uterus, OVX monkeys): 1.2 fold
Fold change relative to OVX: Fibroblast growth factor 2 (basic) (uterus, OVX monkeys): 2.0 fold
Fold change relative to OVX: Fibulin 1 (uterus, OVX monkeys): 1.9 fold
Fold change relative to OVX: Four and a half LIM domains 2 (uterus, OVX monkeys): 1.7 fold
Fold change relative to OVX: G1 to S phase transition 1 (uterus, OVX monkeys): 1.6 fold
Fold change relative to OVX: Growth associated protein 43 (uterus, OVX monkeys): 1.9 fold
Fold change relative to OVX: H2A histone family, member Y (uterus, OVX monkeys): 1.7 fold
Fold change relative to OVX: Heparan sulfate proteoglycan 2 (perlecan) (uterus, OVX monkeys): 2.2 fold
Fold change relative to OVX: Histone H2A.F/Z variant (uterus, OVX monkeys): 1.5 fold
Fold change relative to OVX: Insulin-like growth factor binding protein 2, 36 kda (uterus, OVX monkeys): 2.7 fold
Fold change relative to OVX: Insulin-like growth factor binding protein 5 (uterus, OVX monkeys): 2.0 fold
Fold change relative to OVX: Integrin, beta 5 (uterus, OVX monkeys): 1.5 fold
Fold change relative to OVX: Intercrine-alpha, mrna sequence (uterus, OVX monkeys): 1.5 fold
Fold change relative to OVX: LDL receptor adaptor protein (uterus, OVX monkeys): 1.2 fold
Fold change relative to OVX: LIM and senescent cell antigen-like domains 1 (uterus, OVX monkeys): 2.9 fold
Fold change relative to OVX: Laminin, beta 1 (uterus, OVX monkeys): 1.4 fold
Fold change relative to OVX: Latent transforming growth factor beta binding protein 1 (uterus, OVX monkeys): 2.6 fold
Fold change relative to OVX: Matrix metalloproteinase 19 (uterus, OVX monkeys): 1.6 fold
Fold change relative to OVX: Mitogen-activated protein kinase kinase kinase kinase 4 (uterus, OVX monkeys): 0.6 fold
Fold change relative to OVX: Nidogen (enactin) (uterus, OVX monkeys): 1.9 fold
Fold change relative to OVX: Osteoglycin (osteoinductive factor, mimecan) (uterus, OVX monkeys): 1.7 fold
Fold change relative to OVX: Peroxiredoxin 1 (uterus, OVX monkeys): 1.7 fold
Fold change relative to OVX: Phosphatase and tensin homolog (mutated in multiple advanced cancers 1) (uterus, OVX monkeys): 1.6 fold
Fold change relative to OVX: Phospholipid transfer protein (uterus, OVX monkeys): 1.4 fold
Fold change relative to OVX: Pituitary tumour-transforming 1 interacting protein (uterus, OVX monkeys): 1.9 fold
Fold change relative to OVX: Procollagen C-endopeptidase enhancer (uterus, OVX monkeys): 2.3 fold
Fold change relative to OVX: Procollagen-proline, 2-oxoglutarate 4-dioxygenase (proline 4-hydroxylase), alpha polypeptide II (uterus, OVX monkeys): 1.6 fold
Fold change relative to OVX: Progesterone receptor (uterus, OVX monkeys): 4.5 fold
Fold change relative to OVX: Protein tyrosine kinase 9 (uterus, OVX monkeys): 1.7 fold
Fold change relative to OVX: SET domain, bifurcated 1 (uterus, OVX monkeys): 1.9 fold
Fold change relative to OVX: SPARC-like 1 (mast9, hevin) (uterus, OVX monkeys): 1.3 fold
Fold change relative to OVX: Secreted frizzled-related protein 1 (uterus, OVX monkeys): 2.2 fold
Fold change relative to OVX: Secreted frizzled-related protein 4 (uterus, OVX monkeys): 2.9 fold
Fold change relative to OVX: Secreted protein, acidic, cysteine-rich (osteonectin) (uterus, OVX monkeys): 2.2 fold
Fold change relative to OVX: Serine (or cysteine) proteinase inhibitor, clade H (heat shock protein 47), member 1, (collagen binding protein 1) (uterus, OVX monkeys): 2.2 fold
Fold change relative to OVX: Solute carrier family 22 (organic cation transporter), member 1-like (uterus, OVX monkeys): 1.8 fold
Fold change relative to OVX: Solute carrier family 25 (mitochondrial carrier; adenine nucleotide translocator), member 5 (uterus, OVX monkeys): 2.2 fold
Fold change relative to OVX: Stem cell growth factor; lymphocyte secreted C-type lectin (uterus, OVX monkeys): 1.4 fold
Fold change relative to OVX: Tenascin C (hexabrachion) (uterus, OVX monkeys): 3.8 fold
Fold change relative to OVX: Testis Enhanced Gene Transcript (Bax Inhibitor 1) (uterus, OVX monkeys): 1.5 fold
Fold change relative to OVX: Thioredoxin interacting protein (uterus, OVX monkeys): 0.6 fold
Fold change relative to OVX: Transforming growth factor, beta-induced, 68 kda (uterus, OVX monkeys): 2.2 fold
Fold change relative to OVX: Ubiquinol-cytochrome c reductase, Rieske iron-sulfur polypeptide 1 (uterus, OVX monkeys): 1.4 fold
Fold change relative to OVX: Wingless-type MMTV integration site family, member 2B (uterus, OVX monkeys): 1.9 fold
Fold change relative to OVX: Wingless-type MMTV integration site family, member 16 (uterus, OVX monkeys): 1.1 fold
Fold change relative to SHAM control: ATPase, H+ transporting, lysosomal 38 kda, V0 subunit d isoform 1 (uterus, OVX monkeys): 1.0 fold
Fold change relative to SHAM control: ATPase, Na+/K+ transporting, beta 3 polypeptide (uterus, OVX monkeys): 1.2 fold
Fold change relative to SHAM control: Biglycan (uterus, OVX monkeys): 0.7 fold
Fold change relative to SHAM control: CDC28 protein kinase regulatory subunit 2 (uterus, OVX monkeys): 1.9 fold
Fold change relative to SHAM control: Cadherin 11, type 2, OB-cadherin (osteoblast) (uterus, OVX monkeys): 1.9 fold
Fold change relative to SHAM control: Calcium channel, voltage-dependent, beta 2 subunit (uterus, OVX monkeys): 0.9 fold
Fold change relative to SHAM control: Catenin (cadherin-associated protein), alpha-like 1 (uterus, OVX monkeys): 1.5 fold
Fold change relative to SHAM control: Chitinase 3-like 1 (cartilage glycoprotein-39) (uterus, OVX monkeys): 1.2 fold
Fold change relative to SHAM control: Chloride intracellular channel 4 (uterus, OVX monkeys): 1.1 fold
Fold change relative to SHAM control: Chondroitin sulfate proteoglycan 2 (versican) (uterus, OVX monkeys): 2.1 fold
Fold change relative to SHAM control: Collagen, type I, alpha 1 (uterus, OVX monkeys): 1.3 fold
Fold change relative to SHAM control: Collagen, type IV, alpha 2 (uterus, OVX monkeys): 1.3 fold
Fold change relative to SHAM control: Collagen, type V, alpha 1 (uterus, OVX monkeys): 0.6 fold
Fold change relative to SHAM control: Collagen, type VI, alpha 3 (uterus, OVX monkeys): 1.1 fold
Fold change relative to SHAM control: Collagen, type VIII, alpha 2 (uterus, OVX monkeys): 1.1 fold
Fold change relative to SHAM control: Cyclin D1 (PRAD1: parathyroid adenomatosis 1) (uterus, OVX monkeys): 2.0 fold
Fold change relative to SHAM control: Cysteine-rich, angiogenic inducer, 61 (uterus, OVX monkeys): 0.9 fold
Fold change relative to SHAM control: Cytochrome c oxidase subunit via polypeptide 1 (uterus, OVX monkeys): 1.2 fold
Fold change relative to SHAM control: Cytochrome c oxidase subunit viia polypeptide 2 (liver) (uterus, OVX monkeys): 1.7 fold
Fold change relative to SHAM control: Dermatopontin (uterus, OVX monkeys): 1.0 fold
Fold change relative to SHAM control: Dishevelled associated activator of morphogenesis 1 (uterus, OVX monkeys): 0.8 fold
Fold change relative to SHAM control: Fibroblast growth factor 2 (basic) (uterus, OVX monkeys): 1.0 fold
Fold change relative to SHAM control: Fibulin 1 (uterus, OVX monkeys): 1.1 fold
Fold change relative to SHAM control: Four and a half LIM domains 2 (uterus, OVX monkeys): 1.1 fold
Fold change relative to SHAM control: G1 to S phase transition 1 (uterus, OVX monkeys): 1.3 fold
